Like-named read-outs stand apart in the source and are kept apart here.
Key:
[1] = tested on: HT29 xenografts; assay: HT29 xenograft growth delay, combination with gemcitabine; assay type: in vivo, mouse
[2] = biological target: T1, CHK1 (Homo sapiens, UniProt O14757); assay: Cell-based ELISA for G2 checkpoint abrogation
T1 sequence (O14757 1-476): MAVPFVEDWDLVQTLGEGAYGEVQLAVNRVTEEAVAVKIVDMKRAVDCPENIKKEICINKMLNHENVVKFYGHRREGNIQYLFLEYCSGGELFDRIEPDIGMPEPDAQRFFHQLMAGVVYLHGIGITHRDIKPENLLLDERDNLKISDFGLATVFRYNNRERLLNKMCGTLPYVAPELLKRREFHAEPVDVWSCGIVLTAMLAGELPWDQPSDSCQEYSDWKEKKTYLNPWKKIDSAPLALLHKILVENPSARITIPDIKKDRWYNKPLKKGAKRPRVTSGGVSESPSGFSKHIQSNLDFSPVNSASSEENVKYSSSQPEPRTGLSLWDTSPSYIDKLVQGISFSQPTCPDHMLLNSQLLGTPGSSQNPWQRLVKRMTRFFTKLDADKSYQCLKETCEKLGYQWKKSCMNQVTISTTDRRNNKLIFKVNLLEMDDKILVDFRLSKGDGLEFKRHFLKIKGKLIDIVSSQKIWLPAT

[3] = tested on: 120-140 human kinases; assay: In vitro kinase profiling at 1 and 10 μM, ATP at Km; assay type: biochemical
[4] = tested on: four human tumor cell lines; assay: cells
[5] = In vitro metabolism in male CD1 mouse microsomes; assay type: in vitro ADME; conditions: 10 μM, 30 minutes at 37°C, NADPH and UDPGA
[6] = tested on: MAP4K; assay: Kinase profiling at 1 μM: MAP4K; assay type: biochemical, human
[7] = tested on: Calu6; assay: cells; conditions: Homo sapiens, Calu-6, 96 h
[8] = tested on: HT29 tumors; assay: HT29 xenograft growth delay, combination with irinotecan; assay type: in vivo, mouse; conditions: for growth delay: HT29 tumors
[9] = tested on: SW620 colon carcinoma cell line; assay: Cell cycle analysis; assay type: cell-based, human
[10] = biological target: T1, CHK1; assay: cell-based
[11] = biological target: IRAK 1 (Homo sapiens, UniProt P51617); assay: Kinase profiling at 1 μM: IRAK 1; assay type: biochemical
[12] = tested on: RSK; assay: Kinase profiling at 1 μM: RSK; assay type: biochemical, human
[13] = biological target: T2, CDK1 (Homo sapiens, UniProt P06493); conditions: versus CHK1
[14] = biological target: CHK2 (Homo sapiens, UniProt O96017); assay: CHK2 IC50 determination; assay type: biochemical
[15] = biological target: T1, CHK1; assay: Kinase profiling at 1 μM: CHK1; assay type: biochemical
[16] = biological target: FLT3 (Homo sapiens, UniProt P36888); assay: FLT3 IC50 determination; assay type: biochemical
[17] = biological target: Aurora B (Homo sapiens, UniProt Q96GD4); assay: Kinase profiling at 1 μM: Aurora B; assay type: biochemical
[18] = tested on: HT29; assay: cells; conditions: Homo sapiens, HT-29, 96 h
[19] = tested on: SW620; assay: cells; conditions: Homo sapiens, SW-620, 96 h
[20] = tested on: MiaPaCa-2
[21] = tested on: AMPK; assay: Kinase profiling at 1 μM: AMPK; assay type: biochemical, human
[22] = biological target: T1, CHK1; conditions: HT29
[23] = biological target: NUAK1 (Homo sapiens, UniProt O60285); assay: Kinase profiling at 1 μM: NUAK1; assay type: biochemical
[24] = biological target: TrKA (Homo sapiens, UniProt P04629); assay: Kinase profiling at 1 μM: TrKA; assay type: biochemical
[25] = tested on: S296 CHK1 autophosphorylation; assay: Biomarker changes in HT29 xenografts; assay type: in vivo, mouse; conditions: 100 or 150mg/kg p.o. with gemcitabine 100mg/kg i.v., P<0.05
[26] = biological target: T1, CHK1; assay: Cell-based ELISA for G2 checkpoint abrogation; remark: listed apart in the source
[27] = tested on: HT29 colon carcinoma cells; assay: Cell cycle analysis; assay type: cell-based, human
[28] = biological target: T2, CDK1; assay: biochemical
[29] = tested on: pS296, pS317 and pS345 CHK1; assay: Western blotting of CHK1 phosphorylation biomarkers in HT29 cells; assay type: cell-based, human; conditions: SN38, up to 5μM
[30] = tested on: Calu6
[31] = tested on: MYCN-driven neuroblastoma; assay: Single agent activity in TH-MYCN transgenic mouse model of neuroblastoma; assay type: in vivo
[32] = biological target: T1, CHK1; assay: Cell-based ELISA for G2 checkpoint abrogation; remark: listed apart in the source
[33] = tested on: SW620 xenografts; assay: SW620 xenograft, combination with gemcitabine; assay type: in vivo, mouse; conditions: 75mg/kg p.o. with gemcitabine 100mg/kg i.v.
[34] = biological target: recombinant human CHK1 (Homo sapiens, UniProt O14757); assay: biochemical
[35] = tested on: SW620
[36] = tested on: HT29
[37] = Plasma protein binding by ultra filtration; assay type: in vitro ADME; conditions: mouse
[38] = tested on: Calu6 xenografts; assay: Calu6 xenograft growth delay, combination with gemcitabine; assay type: in vivo, mouse; conditions: for antitumor activity of each agent alone: CCT244747 75mg/kg p.o. or gemcitabine 100mg/kg i.v. alone
[39] = Plasma pharmacokinetics in BALB/c mice; assay type: in vivo, mouse; conditions: for AUC0-∞ / peak plasma concentration: BALB/c mice
[40] = tested on: SW620 cells; assay: Contact time / scheduling study with gemcitabine in SW620
[41] = 0.5μM for 23h following etoposide 25μM × 1h
[42] = BALB/c, mouse, in vivo, po, 10 mg/kg

FLT3, sequence (P36888 27-993): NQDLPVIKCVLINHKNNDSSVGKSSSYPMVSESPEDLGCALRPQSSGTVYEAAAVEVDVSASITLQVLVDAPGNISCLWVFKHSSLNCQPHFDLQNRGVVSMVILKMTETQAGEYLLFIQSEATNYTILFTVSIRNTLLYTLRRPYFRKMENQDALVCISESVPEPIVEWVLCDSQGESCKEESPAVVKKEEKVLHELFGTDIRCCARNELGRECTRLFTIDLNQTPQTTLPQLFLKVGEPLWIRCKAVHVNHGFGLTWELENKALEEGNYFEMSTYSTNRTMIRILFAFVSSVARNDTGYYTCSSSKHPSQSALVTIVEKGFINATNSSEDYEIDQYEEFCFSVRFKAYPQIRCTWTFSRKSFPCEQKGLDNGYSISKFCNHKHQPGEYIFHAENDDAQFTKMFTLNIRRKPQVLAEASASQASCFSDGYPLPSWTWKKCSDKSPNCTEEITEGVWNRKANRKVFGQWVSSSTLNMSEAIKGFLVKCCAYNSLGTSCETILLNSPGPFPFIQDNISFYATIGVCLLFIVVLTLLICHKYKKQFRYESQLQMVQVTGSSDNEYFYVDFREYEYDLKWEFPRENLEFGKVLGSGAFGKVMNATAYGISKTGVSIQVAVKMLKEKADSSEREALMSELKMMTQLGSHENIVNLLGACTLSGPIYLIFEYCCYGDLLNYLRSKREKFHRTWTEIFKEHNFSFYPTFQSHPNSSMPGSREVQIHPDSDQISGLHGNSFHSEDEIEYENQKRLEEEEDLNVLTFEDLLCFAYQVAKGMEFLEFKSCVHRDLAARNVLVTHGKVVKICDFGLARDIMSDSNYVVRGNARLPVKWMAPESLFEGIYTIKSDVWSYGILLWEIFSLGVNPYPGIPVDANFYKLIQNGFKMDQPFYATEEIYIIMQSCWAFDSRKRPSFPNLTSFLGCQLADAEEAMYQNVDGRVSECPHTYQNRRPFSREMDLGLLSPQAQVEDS
CHK2, sequence (O96017 whole entry): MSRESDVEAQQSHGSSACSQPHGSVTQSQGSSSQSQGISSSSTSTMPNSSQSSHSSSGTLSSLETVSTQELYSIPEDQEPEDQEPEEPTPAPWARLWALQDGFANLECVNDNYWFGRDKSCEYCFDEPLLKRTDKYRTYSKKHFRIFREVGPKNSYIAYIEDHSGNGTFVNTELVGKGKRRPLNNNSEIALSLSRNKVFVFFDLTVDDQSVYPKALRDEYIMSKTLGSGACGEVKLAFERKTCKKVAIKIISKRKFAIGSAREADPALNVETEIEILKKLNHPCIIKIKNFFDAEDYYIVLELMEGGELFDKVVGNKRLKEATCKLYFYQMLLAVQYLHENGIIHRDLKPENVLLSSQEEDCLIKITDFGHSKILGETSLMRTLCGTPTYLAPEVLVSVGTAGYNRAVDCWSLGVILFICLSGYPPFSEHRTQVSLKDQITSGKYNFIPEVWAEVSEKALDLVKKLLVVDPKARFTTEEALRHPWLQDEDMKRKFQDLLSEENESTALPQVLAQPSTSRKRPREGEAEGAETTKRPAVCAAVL
T2 sequence (P06493 whole entry, looked up): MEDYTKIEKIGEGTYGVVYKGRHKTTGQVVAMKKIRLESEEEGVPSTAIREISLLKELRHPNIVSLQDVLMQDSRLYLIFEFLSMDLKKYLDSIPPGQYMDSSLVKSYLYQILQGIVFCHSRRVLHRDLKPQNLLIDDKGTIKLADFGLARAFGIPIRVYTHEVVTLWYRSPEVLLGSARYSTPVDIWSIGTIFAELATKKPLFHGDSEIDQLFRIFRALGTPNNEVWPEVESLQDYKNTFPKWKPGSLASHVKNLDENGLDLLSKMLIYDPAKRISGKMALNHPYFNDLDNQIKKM
Aurora B, sequence (Q96GD4 whole entry): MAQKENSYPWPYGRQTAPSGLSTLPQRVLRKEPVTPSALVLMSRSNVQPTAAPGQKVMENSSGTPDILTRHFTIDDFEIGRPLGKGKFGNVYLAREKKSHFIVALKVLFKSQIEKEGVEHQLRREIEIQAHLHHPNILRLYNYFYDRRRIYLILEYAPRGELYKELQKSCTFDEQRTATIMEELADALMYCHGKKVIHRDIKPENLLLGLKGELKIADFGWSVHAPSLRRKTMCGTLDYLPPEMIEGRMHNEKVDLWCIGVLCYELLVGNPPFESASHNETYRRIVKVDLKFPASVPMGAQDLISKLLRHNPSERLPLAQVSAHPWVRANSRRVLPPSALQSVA
TrKA, sequence (P04629 33-796): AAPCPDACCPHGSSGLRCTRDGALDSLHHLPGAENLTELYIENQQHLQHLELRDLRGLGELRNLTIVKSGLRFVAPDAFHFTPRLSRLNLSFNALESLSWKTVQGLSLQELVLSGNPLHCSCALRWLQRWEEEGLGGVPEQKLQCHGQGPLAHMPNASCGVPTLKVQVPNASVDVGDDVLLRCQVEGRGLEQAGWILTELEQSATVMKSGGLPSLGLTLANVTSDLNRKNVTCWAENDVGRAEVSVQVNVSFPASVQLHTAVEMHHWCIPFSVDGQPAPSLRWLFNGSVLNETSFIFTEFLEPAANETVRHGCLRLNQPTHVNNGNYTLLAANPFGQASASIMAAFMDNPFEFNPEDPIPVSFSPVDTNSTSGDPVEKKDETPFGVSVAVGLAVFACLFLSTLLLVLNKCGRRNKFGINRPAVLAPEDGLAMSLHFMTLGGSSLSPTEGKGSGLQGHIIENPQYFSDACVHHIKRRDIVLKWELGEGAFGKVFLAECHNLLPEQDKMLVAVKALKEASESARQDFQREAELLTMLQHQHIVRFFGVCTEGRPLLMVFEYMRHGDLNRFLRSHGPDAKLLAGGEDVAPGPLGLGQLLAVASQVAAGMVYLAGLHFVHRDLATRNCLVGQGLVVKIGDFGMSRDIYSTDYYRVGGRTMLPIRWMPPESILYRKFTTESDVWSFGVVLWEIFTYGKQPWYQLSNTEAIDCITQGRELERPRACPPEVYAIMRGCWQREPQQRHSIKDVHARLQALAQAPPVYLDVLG
NUAK1, sequence (O60285 whole entry): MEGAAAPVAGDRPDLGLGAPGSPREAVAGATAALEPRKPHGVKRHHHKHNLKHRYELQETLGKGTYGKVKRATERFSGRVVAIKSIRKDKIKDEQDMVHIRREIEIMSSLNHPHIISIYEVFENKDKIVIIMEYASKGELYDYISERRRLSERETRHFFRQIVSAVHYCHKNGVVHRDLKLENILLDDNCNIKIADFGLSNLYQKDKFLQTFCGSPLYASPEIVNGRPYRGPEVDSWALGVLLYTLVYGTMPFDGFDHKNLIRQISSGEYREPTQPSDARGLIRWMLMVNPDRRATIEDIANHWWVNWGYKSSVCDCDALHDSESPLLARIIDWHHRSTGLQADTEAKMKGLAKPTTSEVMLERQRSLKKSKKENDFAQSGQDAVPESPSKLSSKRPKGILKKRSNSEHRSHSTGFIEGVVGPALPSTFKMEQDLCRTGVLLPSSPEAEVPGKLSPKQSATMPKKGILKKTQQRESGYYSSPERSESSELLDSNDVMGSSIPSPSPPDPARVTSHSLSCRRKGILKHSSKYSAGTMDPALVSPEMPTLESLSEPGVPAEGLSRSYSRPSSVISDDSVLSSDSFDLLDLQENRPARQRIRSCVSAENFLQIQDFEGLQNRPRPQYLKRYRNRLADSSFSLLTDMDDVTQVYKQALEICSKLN
IRAK 1, sequence (P51617 whole entry): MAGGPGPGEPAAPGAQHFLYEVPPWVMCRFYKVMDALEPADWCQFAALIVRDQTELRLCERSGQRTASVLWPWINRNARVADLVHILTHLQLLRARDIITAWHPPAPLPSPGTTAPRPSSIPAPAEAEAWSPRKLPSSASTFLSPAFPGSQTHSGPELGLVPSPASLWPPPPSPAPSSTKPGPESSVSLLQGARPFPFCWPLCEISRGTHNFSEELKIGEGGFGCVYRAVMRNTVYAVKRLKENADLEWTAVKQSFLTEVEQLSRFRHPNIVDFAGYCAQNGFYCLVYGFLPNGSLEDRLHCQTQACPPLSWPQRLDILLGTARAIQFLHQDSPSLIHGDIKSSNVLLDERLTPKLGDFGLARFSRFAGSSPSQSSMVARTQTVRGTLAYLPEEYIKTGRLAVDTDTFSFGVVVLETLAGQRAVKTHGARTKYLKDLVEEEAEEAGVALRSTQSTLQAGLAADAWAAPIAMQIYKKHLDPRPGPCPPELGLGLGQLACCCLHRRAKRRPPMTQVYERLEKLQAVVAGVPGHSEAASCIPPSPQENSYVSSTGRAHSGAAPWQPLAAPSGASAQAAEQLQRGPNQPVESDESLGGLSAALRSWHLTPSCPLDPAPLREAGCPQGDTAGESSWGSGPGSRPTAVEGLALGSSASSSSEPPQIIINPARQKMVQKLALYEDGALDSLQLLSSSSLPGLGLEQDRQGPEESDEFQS

## COc1cc(Nc2cnc(C#N)c(O[C@H](C)CN(C)C)n2)ncc1-c1cnn(C)c1 [CCT244747]
[1]; 75mg/kg p.o. added to gemcitabine 100mg/kg i.v.
  growth delay: 11.4 days
[1]; 75mg/kg p.o. alone
  antitumor effect alone: minimal effect
[1]; P<0.001
  difference in growth delay, combination versus gemcitabine alone: 9.1 days
[1]; combination with gemcitabine
  body weight loss: minimal body weight loss
[2]
  IC50: 29 to 170 nM
[3]; 1μM, panel of 140 kinases
  number of kinases with >50% inhibition: 8
[3]; 10μM, total of 121 kinases
  number of kinases inhibited by ≥80%: 9
[4]
  GI50: 330 to 3000 nM
[5]
  microsomal metabolism: 45%
[6]
  inhibition: > 50%
[7]
  GI50: 330 ± 51 nM
[8]; 150mg/kg p.o. added to irinotecan 25mg/kg i.p.
  growth delay: 13.5 days
[8]; 150mg/kg p.o. alone
  growth delay: 0.3 days
[8]; combination with irinotecan, day 10
  nadir of body weight loss: 1.3%
[9]; alone, up to 1μM × 24h
  effect alone on the cell cycle: minimal effects
[9]; with gemcitabine 10nM × 24h
  increase in G1: 4.4%
  increase in S'-phase: 19%
  reduction in S-phase: 28.8%
[10]
  IC50: 170 ± 5.8 nM
[11]
  inhibition at 1 µM: > 50%
[12]
  inhibition: > 50%
[13]
  selectivity against CDK1: more than 1,000 fold
[14]
  IC50: > 10000 nM
[14]; versus CHK1
  selectivity against CHK2: more than 1,000 fold
[15]
  inhibition of CHK1 in kinase profiling: marked inhibition
[16]
  IC50: 600 nM
[16]; versus CHK1
  selectivity against FLT3: 75 fold
[17]
  inhibition at 1 µM: > 50%
[18]
  GI50: 620 ± 230 nM
[19]
  GI50: 3000 ± 1200 nM
[20]; Gem
  Potentiation Index (PI): 16±6.3 (n=5)
[20]; SN38
  Potentiation Index (PI): 5.0±0.82 (n=5)
[21]
  inhibition: > 50%
[22]
  therapeutic window (ratio of MIA and GI50): 21 fold
[23]
  inhibition at 1 µM: > 50%
[24]
  inhibition at 1 µM: > 50%
[25]
  effect on gemcitabine induced S296 CHK1 autophosphorylation in vivo: significantly decreased
[26]
  IC50: 44 ± 10 nM
[27]; 0.1μM with SN38 20nM × 24h
  further cells accumulating in G2/M: 33.8%
  reduction of SN38-induced S-phase arrest: 42.3%
[27]; [41]
  increase in G1: 9.6%
  loss of G2/M cells: 30%
[27]; 0.5μM for 23h following etoposide, increased from 1.2
  S' population (S-phase cells not incorporating BrdU): 17.7%
[27]; alone, up to 0.5μM × 24h
  effect alone on the cell cycle: minimal effects
[27]; increasing concentrations with SN38 20nM × 24h, increased from 5
  S'-phase cells: 42.1%
[28]
  IC50: > 10000 nM
[29]
  abolition of S317 and S345 CHK1 phosphorylation: neither phosphorylation was completely abolished
[30]; Gem
  Potentiation Index (PI): 5.6±0.96 (n=3)
[30]; SN38
  Potentiation Index (PI): 1.4±0.24 (n=3)
[31]; TH-MYCN mice, 100mg/kg p.o. × 7 days
  tolerability: well tolerated with no drug-related morbidity
[31]; TH-MYCN neuroblastoma, 100mg/kg p.o. × 7 days, P<0.001
  effect on tumor versus vehicle treated controls (final tumor weight): significant tumor shrinkage
[31]; TH-MYCN neuroblastoma, 100mg/kg p.o. × 7 days, one example tumor
  tumor volume reduction by MRI: 79%
[31]; TH-MYCN neuroblastoma, 100mg/kg p.o. × 7days, pre-treatment 1960mm^3
  post-treatment tumor volume (MRI): 417 mm^3
[32]
  IC50: 94 ± 66 nM
[33]
  antitumor activity combined with gemcitabine: Modest activity
[34]
  IC50: 8 nM
[35]; 5FU
  Potentiation Index (PI): 4.9±0.8 (n=3)
[35]; 5FdU
  Potentiation Index (PI): 47±14 (n=3)
[35]; CDDP
  Potentiation Index (PI): 4.2±0.87 (n=3)
[35]; Etop
  Potentiation Index (PI): 4.9±2.2 (n=3)
[35]; Gem
  Potentiation Index (PI): 12.2±2.7 (n=5)
[35]; IR +1h
  Potentiation Index (PI): 4.9±1.6 (n=4)
[35]; IR −1h
  Potentiation Index (PI): 4.5±1.2 (n=4)
[35]; SN38
  Potentiation Index (PI): 2.6±0.6 (n=3)
[36]; 5FU
  Potentiation Index (PI): 2.2±0.2 (n=3)
[36]; 5FdU
  Potentiation Index (PI): 9.6±1.2 (n=3)
[36]; CDDP
  Potentiation Index (PI): 1.8±0.32 (n=3)
[36]; Etop
  Potentiation Index (PI): 1.9±0.63 (n=4)
[36]; Gem
  Potentiation Index (PI): 8.5±1.6 (n=4)
[36]; IR +1h
  Potentiation Index (PI): 3.0±0.67 (n=4)
[36]; IR −1h
  Potentiation Index (PI): 3.9±0.32 (n=4)
[36]; SN38, SRB GI50 / Combination GI50
  Potentiation Index (PI): 1.9±0.14 (n=4)
[37]
  fraction unbound at 1 h, 10 μM: 0.244
[38]; Calu6 xenografts, 75mg/kg p.o. added to gemcitabine 100mg/kg i.v.
  growth delay: 15.9 days
[38]; Calu6 xenografts
  antitumor activity of each agent alone: minimal activity
[38]; Calu6 xenografts, P<0.001
  increase in growth delay, combination versus gemcitabine alone: 8.7 days
[38]; combination with gemcitabine, day 8
  nadir of body weight loss: 5.4%
[39]; 10mg/kg i.v.
  AUC0-∞: 3.93 μMh
[39]; 10mg/kg i.v., at 5 min
  peak plasma concentration: 3.62 µM
[39]; 10mg/kg oral
  AUC0-∞: 2.43 μMh
  peak plasma concentration: 0.98 µM
[39]; BALB/c, mouse, in vivo, 10 mg/kg
  clearance: 103 mL/min/kg
[39]; BALB/c, mouse, in vivo, iv, 10 mg/kg
  half-life: 40.2 min
[39]; [42]
  bioavailability: 62%
  half-life: 55.2 min

## CCc1c2c(nc3ccc(OC(=O)N4CCC(N5CCCCC5)CC4)cc13)-c1cc3c(c(=O)n1C2)COC(=O)[C@]3(O)CC [irinotecan, reference compound]
[8]; irinotecan alone 25mg/kg i.p. days 0, 4, 8
  growth delay: 6.9 days

## COc1cc([C@@H]2c3cc4c(cc3[C@@H](O[C@@H]3O[C@@H]5CO[C@@H](C)O[C@H]5[C@H](O)[C@H]3O)[C@H]3COC(=O)[C@H]23)OCO4)cc(OC)c1O [etoposide, reference compound]
[27]; etoposide 25μM × 1h, measured at 24h
  cells in G2/M: 70.5%

## C[C@H](CN(C)C)Oc1nc(Nc2cc3cccc(Cl)c3cn2)cnc1C#N [SAR-020106]
[40]; exposures <24h
  enhancement of gemcitabine activity: minimal enhancement
[40]; gemcitabine
  continuous exposure giving maximum potentiation of gemcitabine cytotoxicity: ≥ 48 h

## Nc1ccn([C@@H]2O[C@H](CO)[C@@H](O)C2(F)F)c(=O)n1 [gemcitabine, reference compound]
[1]; gemcitabine alone 100mg/kg i.v. days 0, 7, 14
  growth delay: 2.3 days
[38]; Calu6 xenografts
  antitumor activity of each agent alone: minimal activity

Source: publication PMC3474704 (Clinical cancer research : an official journal of the …, 2012)
